{"source": "patent US20050176811A1", "about": "“Vitamin combination for providing protection during the chemotherapy and/or radio-therapy of malignant tumours” (priority 2002, published 2005)", "key": {"[1]": {"test_system": "stomach cancer at stage IV", "design": "concentration or dose not given beside the values", "conditions": "only 5-Fu, control group from older literature; cited from earlier work"}, "[2]": {"test_system": "white raceless male and female rats", "assay": "Whole body gamma irradiation of rats at 11.4 Gy, comparison with mexamine", "format": "in vivo", "conditions": "radiation dose 11.4 Gy, agent 24 h before irradiation", "protocol": "In order to compare the radiation protection according to the invention with the effect of conventional radiation protective agents white raceless male and female rats weighing from 150 to 180 g (age: 3 months) was subjected to whole body gamma irradiation at a dose of 11.4 Gy, the animals being protected according to the invention by administering the vitamin combination at the above-mentioned dose 24 hours before the irradiation (group I). […] A third group of rats was irradiation without administering a radiation protective agent (group III)."}, "sarcoma 45": {"test_system": "sarcoma 45", "conditions": "rat, in vivo"}}, "data": [{"molecule": "O=c1[nH]cc(F)c(=O)[nH]1", "note": "[5-Fu, 5-Fluorouracil]", "values": [{"measurement": "survival rate (%) after 3 months", "setting": "[1]", "value": 86.7, "unit": "%"}, {"measurement": "survival rate (%) after 6 months", "setting": "[1]", "value": 66.7, "unit": "%"}, {"measurement": "survival rate (%) after 9 months", "setting": "[1]", "value": 40.0, "unit": "%"}, {"measurement": "survival rate (%) after 12 months", "setting": "[1]", "value": 20.0, "unit": "%"}, {"measurement": "survival rate (%) after 18 months", "setting": "[1]", "value": 13.7, "unit": "%"}, {"measurement": "survival rate (%) after 22 months", "setting": "[1]", "value": 0, "unit": "%"}]}, {"molecule": "COc1ccc2[nH]cc(CCN)c2c1", "note": "[mexamine]", "values": [{"measurement": "average life-span", "setting": "[2]", "value": "8.2 ± 4", "unit": "days"}, {"measurement": "days at which 50% of animals are dead", "setting": "[2]", "value": "50/8 days"}, {"measurement": "days at which 100% of animals are dead", "setting": "[2]", "value": "100/13 days"}]}, {"molecule": "tocopherol [vitamin E]", "values": [{"measurement": "distribution of vitamin E (tocopherol contents in organs)", "setting": "sarcoma 45", "value": "accumulation of this vitamin in the tumour"}]}]}
